Where only a bound is given, the exact number is not on record here.

Results on 1 compound are retold here after patent US6787525B1, “Glyceryl nucleotides, method for the production thereof and their use” (priority 1998, dated 2004).

The subject of one series is A498. In words: In vitro cytostatic effect (SRB): A498, Kidney cancer.
For another series, the system named is MCF7. Put plainly: In vitro cytostatic effect (SRB): MCF7, Breast cancer.
The test system of another series is UO-31. In words: In vitro cytostatic effect (SRB): UO-31, Kidney cancer.
The mark [1] stands for this setting: read-out: LC50, 48-hour incubation.

For the compound `CCCCCCCCCCCCCCCCCCOC(COP(=O)(O)OCC1OC(n2cc(F)c(=O)[nH]c2=O)CC1O)COP(=O)(O)OCC1OC(n2ccc(N)nc2=O)C(O)C1O` (racemic) [NSC 698688-A/1, arabinocytidylyl-(5′→1)-2-O-octadecyl-rac-glycerylyl-(3→5′)-5-fluoro-2′-deoxyuridine], the results for the concentration for 50% growth inhibition (GI50) in the series with A498 (48-hour incubation), with MCF7 (48-hour incubation) and in the series on UO-31 (48-hour incubation) were 0.319 µM, 0.17 µM and 21.3 µM, respectively. In addition, the TGI with A498 (48-hour incubation), with MCF7 (48-hour incubation) and with UO-31 (48-hour incubation) was greater than 1.00E − 04 mol/l in each case. For the same compound, the CC50 in the series on A498 (setting [1]), in the series with MCF7 (setting [1]) and in the series with UO-31 (setting [1]) was greater than 100 µM in each case.

A word on the GI50: it is the concentration that inhibits growth by half. Read a low GI50 as more potent growth inhibition.
